According to patent publication US12508239B2, “Alcohol derivatives as Kv7 potassium channel openers for use in epilepsy or seizures” (H. Lundbeck A/S, priority 2019, dated 2025):

Experiments:
rats = experiment: Maximal electroshock seizure threshold test (MEST) in rats; format: in vivo, rat; conditions: for seizure threshold: rats
Method: (§1) Significant differences between drug-treated animals and controls were assessed according to Litchfield and Wilcoxon, Pharmacol Exp Ther. 1949; 96(1):99-113

mice = experiment: Maximal electroshock seizure threshold test (MEST) in mice; format: in vivo, mouse; conditions: corneal electrodes
Method: as §1

hKv7.2/hKv7.3 [1] = target: T1, hKv7.2/hKv7.3 (Homo sapiens, UniProt O43525+O43526); experiment: Thallium influx assay for potassium channel activation; format: cell-based; conditions: HEK-hKv7.2/hKv7.3 cells; AUC readout normalized to a reference compound
T1 construct: P2A self-cleaving linker (remnant after ribosomal skipping); expressed in transfected cells; vector pcDNA5/FRT/TO
Method: (§2) A synthesized cDNA fragment encoding human Kv7.3 and human Kv7.2 separated by a P2A sequence was inserted into the pcDNA5/FRT/TO vector using the BamHI and XhoI restriction sites. The construct was then transfected into HEK Flp-In 293 cells using Lipofectamine2000. The transfected cells were grown for 48 hours in DMEM containing 10% (v/v) FBS and 1% PenStrep and subsequently maintained under selection in DMEM containing 10% (v/v) FBS, 1% PenStrep and 200 ug/mL Hygromycin B at 37° C. in a humidified atmosphere of 5% CO2.
The thallium influx assay for potassium channel activation was performed analogously to a published procedure (C. D. Weaver, et al., J Biomol Screen 2004, 9, 671-677) using the FLIPR Potassium Assay kit (Molecular Devices). HEK-hKv7.2/hKv7.3 cells were plated onto 96-well, black-walled, clear-bottomed culture plates (Corning, Acton, MA, USA) at a density of 80,000 cells/well (100 μl/well) if the cells were assayed the following day, or 40,000 cells/well (100 μl/well) if the cells were assayed two days after seeding.
On the assay day, the medium was removed after which 50 uL/well of test compound diluted to 2× final concentration in HBSS containing 20 mM HEPES, and 50 uL/well of 2× dye load buffer were added. The cells were then incubated for 60 min at room temperature in the dark. Chloride-free stimulation buffer containing Tl^+ and K^+ at 5× final concentration (5× concentration: 5 mM in both cases) and test compound at 1× final concentration, were prepared during the incubation. The cells were then assayed in a FDSS7000EX Functional Drug Screening System (Hamamatsu). Following 60 sec of baseline fluorescence signal reading at 0.1 Hz, and 10 sec at 1 Hz, 25 uL/well of stimulation buffer were added and the fluorescence continuously measured for 50 sec at 1 Hz followed, by 4 min at 0.1 Hz. Compound effect was quantified using AUC as readout and normalized to a reference compound, which was included on each plate.

hKv7.2/hKv7.3 [2] = target: T1, hKv7.2/hKv7.3; experiment: Automated whole cell patch-clamp of stable HEK-hKv7.2/hKv7.3 cell line; format: cell-based; conditions: functional test of the cell line
Method: as §2

| SMILES | EC50 (hKv7.2/hKv7.3 [1]) | effect on Kv7-current (hKv7.2/hKv7.3 [2]) | further results |
| --- | --- | --- | --- |
| C[C@H](NC(=O)CC1(O)CC(F)(F)C1)c1cccc(OC(F)(F)F)c1 [Example 5, (S)-2-(3,3-difluoro-1-hydroxycyclobutyl)-N-(1-(3-(trifluoromethoxy)phenyl)ethyl) acetamide] | – | – | seizure threshold CC50 (current producing tonic hind limb extensor seizures in 50% of animals) (rats; rat, acute peroral administration 30 min prior to test, all doses tested 0.03-1 mg/kg, relative to vehicle): significantly increased; seizure threshold (rats; pretreatment with a single acute administration): significant increase; seizure threshold (rats; repeated administration (once daily, 15 days)): significant increase; current required to induce an electroconvulsion, i.e. seizure threshold (mice): dose-dependent significant increase |
| C[C@H](NC(=O)CC(C)(O)C(F)(F)C(F)F)c1cccc(OC(F)(F)F)c1 (single isomer, unassigned) [Example 10a] | 650 nM | – | – |
| C[C@H](NC(=O)C[C@@](C)(O)CC(F)(F)F)c1cccc(OC(F)(F)F)c1 (single isomer, unassigned) [Example 13a] | 1900 nM | – | – |
| O=C1c2ccccc2C(Cc2ccncc2)(Cc2ccncc2)c2ccccc21 [XE991] | – | sensitive | – |
| CCOC(=O)Nc1ccc(NCc2ccc(F)cc2)cc1N [Retigabine, N-(2-amino-4-(4-fluorobenzylamino)-phenyl) carbamic acid ethyl ester] | – | potentiated | – |
| C[C@H](NC(=O)C[C@H](O)C1CC(F)(F)C1)c1cccc(OC(F)(F)F)c1 [Example 11a, 3-(3,3-Difluorocyclobutyl)-3-hydroxy-N—((S)-1-(3-(trifluoromethoxy)phenyl)ethyl) propanamide] | 1500 nM | – | – |
